Assay results: patent publication US10450288B2, “Hydroxy formamide derivatives and their use” (GLAXOSMITHKLINE INTELLECTUAL PROPERTY (NO.2) LIMITED, priority 2014, dated 2019)
Where a name gives a salt, the structure may show the parent alone.

Experiments:
[1] = test system: human cardiac fibroblasts; experiment: Cell-based inhibition assay of generation of procollagen I C-terminal propeptide (PICP), PICP ELISA; details: Cardiac fibroblast, read-out: pIC50, PICP cellular inhibition assay (converted)
Outline: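 Cardiac fibroblasts (passage ≤6) treated 24–48 h at 37 °C with compounds in ficoll crowding medium containing 100 μM ascorbic acid, DMSO <0.3%. PICP secreted into the medium was quantified by ELISA, normalised to untreated controls and fitted to log(inhibitor)–response to give pIC50.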

[2] = test system: human cardiac fibroblasts; experiment: Cell-based inhibition assay of mature collagen deposition (immunostaining); details: Cardiac fibroblast, read-out: pIC50, mature collagen cellular inhibition assay (converted)
Experimental: Cell-Based Inhibition Assay of Generation of Procollagen I C-Terminal Propeptide (PICP) and Mature Collagen:
An adaptation of the collagen deposition assay described by Chen, C. Z. C., et al., British Journal of Pharmacology, 2009, 158, 1196-1209 was used to examine effect of compounds on procollagen I processing and collagen deposition. In the adapted assay, human cardiac fibroblasts were utilized. Processing of procollagen I was determined by a PICP ELISA assay and deposition of mature collagen was determined by immunostaining.
Human cardiac fibroblasts were cultured and maintained until passage 6 in FGM-3 media (Lonza, #CC-3132) in a 37° C. humidified incubator with 5% CO2. They were then seeded in 96-well black wall, clear bottom plates at 10,000 to 15,000 cells per well in eagle's minimum essential media (EMEM, ATCC #30-2003) containing 10% fetal bovine serum (FBS, Life Technologies #10082147), 1% Glutamax (Life Technologies #35050061) and 1% Penicillin and Streptomycin (Life Technologies #15070063). These cultures were placed in 37° C. incubator. The next day, media were removed by aspiration and cells were rinsed with phosphate buffered saline. Crowding media (also called ficoll media) was prepared by adding 112.5 mg/ml of ficoll70 and 75 mg/ml ficoll400 (GE healthcare #17-0310-10 and 17-0300-10, respectively), 100 μM ascorbic acid, 1% Glutamax and 1% Penicillin and Streptomycin to EMEM media. Test compounds (dissolved in DMSO) were diluted into crowding media and then added to the cells. Final concentration of DMSO in crowding media was less than 0.3%. Cells were treated for 24 to 48 hr in a 37° C. incubator. At the end of the treatment period, cell media were collected. The level of PICP in the media were determined by a PICP ELISA assay (Quidel #8003) following the manufacturer's protocol. Potencies of test compounds were calculated by fitting PICP levels, relative to untreated controls, to log (inhibitor) vs. response equation using Graphpad Prism software 5.0 and expressed as pIC50.
For some compounds, deposition of mature collagen was measured by immunostaining in addition to PICP levels. At the end of the treatment period, cells on culture plate were fixed with 100% methanol (prechilled to −20° C.) for 10 min. Then the cells were immunostained with mouse anti-mature collagen I antibody (1:500 dilution, Sigma#C2456), anti-mouse secondary antibody Alexa647 (1:500 dilution, Invitrogen#A21236) and Hoechst (for nuclei, 2 μg/ml, Invitrogen#H3596). Fluorescent image acquisition was done using the Operetta High Content Imaging system (Perkin Elmer). For each image field, the intensity of mature collagen staining was normalized with the number of nuclei. Normalized collagen levels were used to calculate the potency of test compounds with Graphpad Prism software, as described above.

[3] = human cardiac fibroblasts, crowding media, 24 to 48 hr, PICP ELISA of media
[4] = human cardiac fibroblasts, crowding media, 24 to 48 hr, collagen I immunostaining normalized to nuclei

SMILES	IC50 [1, 3]	further results
CCCCC[C@H](CN(O)C=O)C(=O)NCNC(=O)c1ccc(-c2ccccc2)o1 [Example 5, (R)-N-((2-((N-hydroxyformamido)methyl)heptanamido)methyl)-5-phenylfuran-2-carboxamide]		IC50 ([1]; Homo sapiens): < 3.98 µM; IC50 ([2]; Homo sapiens): < 1 µM
CCCCC[C@@H](C(=O)NCNC(=O)c1ccc(-c2ccccc2)o1)[C@@H](CC)N(O)C=O [Example 24, N-(((R)-2-((R)-1-(N-hydroxyformamido)propyl)heptanamido)methyl)-5-phenylfuran-2-carboxamide]	< 3.98 µM	IC50 [2, 4]: < 1 µM
CCCCC[C@@H](C(=O)NCNC(=O)c1ccc(-c2cc(OCC)cc(C(=O)O)c2)o1)[C@@H](CC)N(O)C=O [Example 39, 3-ethoxy-5-(5-((((R)-2-((R)-1-(N-hydroxyformamido)propyl)heptanamido)methyl)carbamoyl)furan-2-yl)benzoic acid]	< 3.98 µM	IC50 [2, 4]: < 1 µM
CCCCC[C@@H](C(=O)NCNC(=O)c1ccc(-c2cc(OCC)cc(C(=O)N[C@@H](CC(=O)O)C(=O)OC(C)(C)C)c2)o1)[C@@H](CC)N(O)C=O [Example 47, (S)-4-(tert-butoxy)-3-(3-ethoxy-5-(5-((((R)-2-((R)-1-(N-hydroxyformamido)propyl)heptanamido)methyl)carbamoyl)furan-2-yl)benzamido)-4-oxobutanoic acid]	< 3.98 µM	IC50 [2, 4]: < 1 µM
CCCCC[C@@H](C(=O)NCNC(=O)c1ccc(-c2ccc(C(=O)N[C@@H](CC(=O)O)C(=O)O)c(OCC)c2)o1)[C@@H](CC)N(O)C=O [Example 74, (S)-2-(2-ethoxy-4-(5-((((R)-2-((R)-1-(N-hydroxyformamido)propyl)heptanamido)methyl)carbamoyl)furan-2-yl)benzamido)succinic acid]	< 3.98 µM	IC50 [2, 4]: < 1 µM
CCCCC[C@@H](C(=O)NCNC(=O)c1ccc(-c2ccc(C(=O)N[C@@H](CC(=O)O)C(=O)O)c(C)c2)o1)[C@@H](CC)N(O)C=O [Example 120, (S)-2-(4-(5-((((R)-2-((R)-1-(N-hydroxyformamido)propyl)heptanamido)methyl)carbamoyl)furan-2-yl)-2-methylbenzamido) succinic acid]	< 3.98 µM	
CCCCC[C@@H](C(=O)NCNC(=O)c1ccc(-c2cc(OCC(=O)O)cc(C(=O)N[C@@H](CC(=O)O)C(=O)O)c2)o1)[C@@H](CC)N(O)C=O [Example 125, (S)-2-(3-(carboxymethoxy)-5-(5-((((R)-2-((R)-1-(N-hydroxyformamido)propyl)heptanamido)methyl)carbamoyl)furan-2-yl)benzamido) succinic acid]	< 3.98 µM	
CCCCC[C@@H](C(=O)NCNC(=O)c1ccc(-c2ccc(C(=O)O)c(C(=O)O)c2)o1)[C@@H](CC)N(O)C=O [Example 129, 4-(5-((((R)-2-((R)-1-(N-hydroxyformamido)propyl)heptanamido)methyl)carbamoyl)furan-2-yl)phthalic acid]	< 3.98 µM	
CCCCC[C@@H](C(=O)NCNC(=O)c1ccc(-c2cc(CN(C)CC(=O)O)cc(OCC)c2)o1)[C@@H](CC)N(O)C=O [Example 130, 2-((3-ethoxy-5-(5-((((R)-2-((R)-1-(N-hydroxyformamido)propyl)heptanamido)methyl)carbamoyl)furan-2-yl)benzyl)(methyl)amino)acetic acid]	< 3.98 µM	
CCCCC[C@@H](C(=O)NCNC(=O)c1ccc(-c2cc(OCC(N)=O)cc(C(=O)O)c2)o1)[C@@H](CC)N(O)C=O [Example 131, 3-(2-amino-2-oxoethoxy)-5-(5-((((R)-2-((R)-1-(N-hydroxyformamido)propyl)heptanamido)methyl)carbamoyl)furan-2-yl)benzoic acid]	< 3.98 µM	
CCCCC[C@@H](C(=O)NCNC(=O)c1ccc(-c2ccc(C(=O)N[C@H](CC(=O)O)C(=O)O)cc2)o1)[C@@H](CC)N(O)C=O [Example 133]	< 3.98 µM	
CCCCC[C@@H](C(=O)NCNC(=O)c1ccc(-c2ccc(C(=O)N[C@@H](CCC(=O)O)C(=O)O)cc2)o1)[C@@H](CC)N(O)C=O [Example 134, (S)-2-(4-(5-((((R)-2-((R)-1-(N-hydroxyformamido)propyl)heptanamido)methyl)carbamoyl)furan-2-yl)benzamido) pentanedioic acid]	< 3.98 µM	
CCCCC[C@@H](C(=O)NCNC(=O)c1ccc(-c2ccc(C(=O)N[C@@H](CCC(=O)O)C(=O)O)c(OCC)c2)o1)[C@@H](CC)N(O)C=O [Example 135, (S)-2-(2-ethoxy-4-(5-((((R)-2-((R)-1-(N-hydroxyformamido)propyl)heptanamido)methyl)carbamoyl)furan-2-yl)benzamido) pentanedioic acid]	< 3.98 µM	
CCCCC[C@@H](C(=O)NCNC(=O)c1ccc(-c2ccc(C(=O)N(CC(=O)O)CC(=O)O)cc2)o1)[C@@H](CC)N(O)C=O [Example 136, 2,2′-((4-(5-((((R)-2-((R)-1-(N-hydroxyformamido)propyl)heptanamido)methyl)carbamoyl)furan-2-yl)benzoyl)azanediyl)diacetic acid]	< 3.98 µM	
CCCCC[C@@H](C(=O)NCNC(=O)c1ccc(-c2cc(CNCP(=O)(O)O)cc(OCC)c2)o1)[C@@H](CC)N(O)C=O [Example 137, (((3-ethoxy-5-(5-((((R)-2-((R)-1-(N-hydroxyformamido)propyl)heptanamido)methyl)carbamoyl)furan-2-yl)benzyl)amino)methyl)phosphonic acid, trifluoroacetic acid salt]	< 3.98 µM	
CCCCC[C@@H](C(=O)NCNC(=O)c1ccc(-c2cc(O)cc(P(=O)(O)O)c2)o1)[C@@H](CC)N(O)C=O [Example 138, (3-hydroxy-5-(5-((((R)-2-((R)-1-(N-hydroxyformamido)propyl)heptanamido)methyl)carbamoyl)furan-2-yl)phenyl) phosphonic acid]	< 3.98 µM	
CCOc1cc(-c2ccc(C(=O)NCNC(=O)[C@H](CCc3ccccc3)[C@@H](CC)N(O)C=O)o2)cc(P(=O)(O)O)c1 [Example 140]	< 3.98 µM	
CCOc1cc(-c2ccc(C(=O)NCNC(=O)[C@H](CCc3ccc4ccccc4c3)[C@@H](CC)N(O)C=O)o2)cc(P(=O)(O)O)c1 [Example 141]	< 3.98 µM	
CCCCC[C@@H](C(=O)NCNC(=O)c1ccc(-c2ccc(C(=O)NCP(=O)(O)O)c(O)c2)o1)[C@@H](CC)N(O)C=O [Example 142, ((2-hydroxy-4-(5-((((R)-2-((R)-1-(N-hydroxyformamido)propyl)heptanamido)methyl)carbamoyl)furan-2-yl)benzamido)methyl)phosphonic acid]	< 3.98 µM	
CCCCC[C@@H](C(=O)NCNC(=O)c1ccc(-c2ccc(C(=O)NCP(=O)(O)O)cc2)o1)[C@@H](CC)N(O)C=O [Example 143, ((4-(5-((((R)-2-((R)-1-(N-hydroxyformamido)propyl)heptanamido)methyl)carbamoyl)furan-2-yl)benzamido)methyl)phosphonic acid]	< 3.98 µM	
CCCCC[C@@H](C(=O)NCNC(=O)c1ccc(-c2ccc(C(=O)NCP(=O)(O)O)c(C)c2)o1)[C@@H](CC)N(O)C=O [Example 144, ((4-(5-((((R)-2-((R)-1-(N-hydroxyformamido)propyl)heptanamido)methyl)carbamoyl)furan-2-yl)-2-methylbenzamido)methyl)phosphonic acid]	< 3.98 µM	
CCCCC[C@@H](C(=O)NCNC(=O)c1ccc(-c2cc(OCC(=O)O)cc(P(=O)(O)O)c2)o1)[C@@H](CC)N(O)C=O [Example 145, 2-(3-(5-((((R)-2-((R)-1-(N-hydroxyformamido)propyl)heptanamido)methyl)carbamoyl)furan-2-yl)-5-phosphonophenoxy) acetic acid]	< 3.98 µM	
CCCCC[C@@H](C(=O)NCNC(=O)c1ccc(-c2ccc(C(=O)O)c(O)c2)o1)[C@@H](CC)N(O)C=O [Example 146, 2-hydroxy-4-(5-((((R)-2-((R)-1-(N-hydroxyformamido)propyl)heptanamido)methyl)carbamoyl)furan-2-yl)benzoic acid]	< 3.98 µM	
